Measured values taken from patent US12390467B2, “Necroptosis inducers or autophagy inhibitors or a combination thereof” (The University of Toledo, priority 2018, dated 2025).

Legend:
Format in all cases: cell-based
[1] = biological target: T1, P-gp (ABCB1), DU145TXR prostate cancer cells (Homo sapiens, UniProt P08183); test: Calcein AM assay for P-gp modulation; settings: concentration dependent
T1 construct: endogenous in cells; host or cells: DU145TXR prostate cancer cells
Experimental: Ability of P-gp to efflux Calcein AM is used to identify the molecules which interfere with P-gp transporter activity. About 10000 cells of DU145TXR prostate cancer cells were seeded in each well in 96 well plates and allowed to grow until confluency for 4-5 days. Then media was replaced with phenol red free RPMI media and cells were treated with indicated concentrations of TPH104s and 1 μg/mL of Calcein AM. Fluorescence measured after 60 minutes with excitation at 485/20 nm and at emission 535/20 nm using the BioTek Cytation 5 imaging multi-mode reader (Bio-Tek, Winooski, VT). DMSO (0.5% v/v) was used as the vehicle, and 15 μM of Pgp inhibitor SMU 45 was used as a positive control. (n=6 in each trial).

[2] = tested on: LC3B-I, LC3B-II, LAMP1, Beclin-1, mTOR, ULK1, Rab7, Rab5 in BT-20 TNBC cells; test: Western blot, autophagy markers
Experimental: The TNBC cells were seeded in a culture flask and incubated for 24 h. The cells were then incubated with different concentrations of the lead compounds and re-incubated for an additional 12 or 24 h. […] The bicinchoninic acid (BCA) was used to determine protein concentration in the cell extracts (G-BIOSCIENCES, St. Louis, MO, USA). […] The membrane was blocked using 5% milk in Tris-buffered Tween 20 saline for 30 minutes. The membrane was then incubated overnight with primary antibodies against Bak, Bax, Bcl-2, caspase9, caspase 3, caspase 7, PARP, cytochrome c, N-cadherin, E-cadherin, c-Myc, dishevelled segment polarity protein 3 (DVL3), dishevelled segment polarity protein 2 (DVL2), Vimentin, mitogen-activated protein kinase kinase (MAPKK also known as MEK1/2), β-catenin, low-density lipoprotein receptor-related protein 6 (LRP6), receptor-interacting protein kinase (RIP), phosphorylated RIP (p-RIP), mixed lineage kinase domain like pseudokinase(MLKL), Caspase 8, light chain 3 (LC3), lysosomal-associated membrane protein 1 (LAMP1), unc-51 like autophagy activating kinase 1 (ULK1), ras associated protein 7 (Rab7), ras associated protein 5 (Rab5), Beclin 1, mechanistic target of rapamycin (mTOR), tumor necrosis factor alpha (TNF-α), tumor necrosis factor receptor 1 (TNFR1), tumor necrosis factor receptor 2 (TNFR2), Fas-associated protein with death domain (FADD), Fas ligand (Fas), TNF-related apoptosis-inducing ligand (TRAIL), death receptor 5 (DR5), Tumor necrosis factor receptor type 1-associated DEATH domain (TRADD), receptor-interacting protein kinase 3 (RIP3), β-actin or GAPDH in 1:1000 dilution in 5% milk or 5% BSA at 4° C. Horseradish peroxidase-labeled (HRP) anti-rabbit or anti-mouse secondary antibodies (1:5,000 dilution) were added and incubated the next day for an additional 1 h. A ChemiDoc™ MP System imaging system from Bio-Rad (Hercules, CA, USA) was used for blots reading. Blots were used to obtain the protein bands, followed by quantification of the bands using image J software (NIH, Bethesda, MD, USA). All of the data were expressed as the ratio of β-actin or GAPDH.

[3] = tested on: MDA-MB468 (TNBC cell line); test: MTT cell viability assay, MDA-MB468; settings: Homo sapiens, MDA-MB-468, 72 h, read-out: IC50 ± SD, MDA-MB468
Experimental: (§1) The following cancer and non-cancer cell lines were used in the initial cytotoxicity screening of the TPH104 compounds: triple negative breast cancer (TNBC): MDA-MB468, MDA-MB 231, and BT-20; non-TNBC: MCF-7 and ZR-75-1; ovarian: Ov2008; prostate: DU145; colon: HCT-116, S1, and LOVO; lung: H460; normal kidney: HEK-293; normal breast: HMEC; and normal colon: CRL-1459. All cells were cultured in Dulbecco's modified Eagle medium (DMEM), supplemented with 10% fetal bovine serum (FBS), and 1% penicillin/streptomycin (P/S). Cells were allowed to grow as adherent monolayers in T25 flasks in a humidified incubator with 5% CO2 at 37° C. for a period of 24 h, unless otherwise specified for certain experiments.
The MTT assay was used to determine the cytotoxicity of all of the compounds. Briefly, in a 96-well flat-bottom cell culture plate, the cells were seeded at a density between 3-5×10^3 cells/well (180 μl in each well) and incubated for 24 h (a hemocytometer was used for cell counting). The next day, the cells were incubated with different concentrations of the nine compounds (0, 0.1, 0.3, 1, 3, 10, 30, and 100 μM) for 72 h. After 72 h, 20 μl of 5 mg/ml of 3-(4,5-dimethylthiazol-2-yl)-2,5-diphenyltetrazolium bromide (MTT) was added to the plate and incubated with the cells for 3 h at 37° C. In this experiment, the living cells will reduce the soluble MTT dye to non-soluble purple formazan crystals. Following incubation, the media containing MTT removed via suction and 100 μL of 100% dimethyl sulfoxide (DMSO) was added to dissolve the formazan crystals. Subsequently, the plate was shaken for 2 minutes and the absorbance was measured at a wavelength of 570 nm using a SpectraMax iD3 Multi-Mode Microplate Reader (Molecular Devices, Sunnyvale, CA). The IC50 values of each compound were calculated and used to determine the selectivity ratio (IC50 in normal cells/IC50 in cancer cells) of each compound as previously described. Based on the results obtained from these experiments, the compound TPH104, which had the lowest IC50 value, was selected for further experiments.

[4] = tested on: other normal cell lines (colon and kidney); test: MTT cytotoxicity, other normal cell lines
Experimental: as §1
The MTT assay was used to determine the cytotoxicity of all of the compounds. Briefly, in a 96-well flat-bottom cell culture plate, the cells were seeded at a density between 3-5×10^3 cells/well (180 μl in each well) and incubated for 24 h (a hemocytometer was used for cell counting). […] Subsequently, the plate was shaken for 2 minutes and the absorbance was measured at a wavelength of 570 nm using a SpectraMax iD3 Multi-Mode Microplate Reader (Molecular Devices, Sunnyvale, CA). The IC50 values of each compound were calculated and used to determine the selectivity ratio (IC50 in normal cells/IC50 in cancer cells) of each compound as previously described. […]

T1 sequence (P08183 whole entry): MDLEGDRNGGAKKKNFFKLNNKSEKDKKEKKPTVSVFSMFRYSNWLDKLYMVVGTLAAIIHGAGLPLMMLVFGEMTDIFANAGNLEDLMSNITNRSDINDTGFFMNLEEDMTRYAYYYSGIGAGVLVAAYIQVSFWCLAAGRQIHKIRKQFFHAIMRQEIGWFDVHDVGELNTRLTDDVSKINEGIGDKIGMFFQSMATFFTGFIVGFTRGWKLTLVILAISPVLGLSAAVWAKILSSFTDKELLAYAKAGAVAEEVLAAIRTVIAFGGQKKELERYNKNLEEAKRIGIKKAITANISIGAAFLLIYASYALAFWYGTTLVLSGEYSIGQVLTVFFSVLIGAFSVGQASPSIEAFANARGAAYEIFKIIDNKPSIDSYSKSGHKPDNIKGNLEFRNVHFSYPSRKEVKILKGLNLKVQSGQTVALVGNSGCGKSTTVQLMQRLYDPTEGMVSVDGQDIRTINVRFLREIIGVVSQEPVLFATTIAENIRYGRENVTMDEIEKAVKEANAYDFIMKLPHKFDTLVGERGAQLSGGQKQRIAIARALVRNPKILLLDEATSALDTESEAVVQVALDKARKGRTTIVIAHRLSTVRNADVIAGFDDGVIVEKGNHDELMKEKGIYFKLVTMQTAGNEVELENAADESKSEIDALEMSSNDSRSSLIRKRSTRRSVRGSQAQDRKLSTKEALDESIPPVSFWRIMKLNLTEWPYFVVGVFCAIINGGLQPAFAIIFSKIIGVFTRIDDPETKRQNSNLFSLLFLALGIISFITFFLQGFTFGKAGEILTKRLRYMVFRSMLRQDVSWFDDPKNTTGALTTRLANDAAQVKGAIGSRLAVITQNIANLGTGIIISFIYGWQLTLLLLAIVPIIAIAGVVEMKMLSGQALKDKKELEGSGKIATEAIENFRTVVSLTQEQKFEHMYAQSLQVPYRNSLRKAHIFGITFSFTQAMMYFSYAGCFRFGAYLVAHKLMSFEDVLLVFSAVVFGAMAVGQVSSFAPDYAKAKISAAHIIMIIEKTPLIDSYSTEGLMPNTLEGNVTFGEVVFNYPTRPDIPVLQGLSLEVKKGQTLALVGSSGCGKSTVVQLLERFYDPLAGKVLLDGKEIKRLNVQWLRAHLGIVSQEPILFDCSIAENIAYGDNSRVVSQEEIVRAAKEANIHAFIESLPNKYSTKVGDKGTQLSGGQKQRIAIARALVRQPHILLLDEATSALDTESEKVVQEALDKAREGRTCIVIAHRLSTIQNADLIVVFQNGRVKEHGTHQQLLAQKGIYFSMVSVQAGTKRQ

COc1ccc(O)c(/C=N/Nc2ncnc3scc(-c4ccc(C)cc4)c23)c1 [TPH104]
efflux function of ABCB1 [1]: blocking the efflux function | expression levels of ULK1, Rab5, and Rab7 ([2]; 0.5, 1, 2, or 5 μM): significantly reduced | LC3B-I levels ([2]; 0.5, 1, 2, or 5, 12 h): significantly increased | LC3B-II ([2]; 0.5, 1, 2, or 5, 12 h): no significant increase | expression of Beclin 1 ([2]; 1, 2, and 5 μM for 12 h): significantly decreased | expression of mTOR ([2]; 1, 2, or 5 μM for 12 h): significantly increased | expression levels of LAMP1 ([2]; 12 h): no significant change | IC50 [3]: 250 nM | selectivity fold in comparison to other normal cell lines (colon and kidney) [4]: up to 30 fold
